Bridge positions count the residues as written; N and C are the ends. Peptide text beside a SMILES is read from it. I, II: the chains in the order shown. * marks the point of attachment. Lauroyl = CCCCCCCCCCCC(=O)*; Decanoyl = CCCCCCCCCC(=O)*; Octanoyl = CCCCCCCC(=O)*; Hexanoyl = CCCCCC(=O)*; Butyryl = CCCC(=O)*
Test system: Erythrocyte
Assay: Hemolytic activity in human erythrocyte incubated for 70 mins by absorbance based assay
Format: toxicity, cell-based
Conditions: 1.167 h

Structure (SMILES) | HC10 [µM]
CCCC(=O)NCC(=O)N[C@@H](CC(C)C)C(=O)N[C@@H](CC(C)C)C(=O)N[C@@H](CCCCN)C(=O)N[C@@H](CCCNC(=N)N)C(=O)N[C@H](C(=O)N[C@@H](CCCCN)C(=O)N[C@H](C(=O)N[C@@H](CC(C)C)C(=O)N[C@@H](CC(C)C)C(=O)NCCCC[C@H](NC(=O)[C@H](CCCCNC(=O)[C@H](CC(C)C)NC(=O)[C@H](CC(C)C)NC(=O)[C@@H](NC(=O)[C@H](CCCCN)NC(=O)[C@@H](NC(=O)[C@H](CCCNC(=N)N)NC(=O)[C@H](CCCCN)NC(=O)[C@H](CC(C)C)NC(=O)[C@H](CC(C)C)NC(=O)CNC(=O)CCC)[C@@H](C)CC)[C@@H](C)O)NC(=O)[C@H](CC(C)C)NC(=O)[C@H](CC(C)C)NC(=O)[C@@H](NC(=O)[C@H](CCCCN)NC(=O)[C@@H](NC(=O)[C@H](CCCNC(=N)N)NC(=O)[C@H](CCCCN)NC(=O)[C@H](CC(C)C)NC(=O)[C@H](CC(C)C)NC(=O)CNC(=O)CCC)[C@@H](C)CC)[C@@H](C)O)C(N)=O)[C@@H](C)O)[C@@H](C)CC (I: Butyryl-GLLKRIKTLLKK-NH2 / II: Butyryl-GLLKRIKTLL / III: Butyryl-GLLKRIKTLL; amide I:11-III:C, I:12-II:C) | 3.18
CCCCCCCCCC(=O)NCC(=O)N[C@@H](CC(C)C)C(=O)N[C@@H](CC(C)C)C(=O)N[C@@H](CCCCN)C(=O)N[C@@H](CCCNC(=N)N)C(=O)N[C@H](C(=O)N[C@@H](CCCCN)C(=O)N[C@H](C(=O)N[C@@H](CC(C)C)C(=O)N[C@@H](CC(C)C)C(=O)NCCCC[C@H](NC(=O)[C@H](CCCCNC(=O)[C@H](CC(C)C)NC(=O)[C@H](CC(C)C)NC(=O)[C@@H](NC(=O)[C@H](CCCCN)NC(=O)[C@@H](NC(=O)[C@H](CCCNC(=N)N)NC(=O)[C@H](CCCCN)NC(=O)[C@H](CC(C)C)NC(=O)[C@H](CC(C)C)NC(=O)CNC(=O)CCCCCCCCC)[C@@H](C)CC)[C@@H](C)O)NC(=O)[C@H](CC(C)C)NC(=O)[C@H](CC(C)C)NC(=O)[C@@H](NC(=O)[C@H](CCCCN)NC(=O)[C@@H](NC(=O)[C@H](CCCNC(=N)N)NC(=O)[C@H](CCCCN)NC(=O)[C@H](CC(C)C)NC(=O)[C@H](CC(C)C)NC(=O)CNC(=O)CCCCCCCCC)[C@@H](C)CC)[C@@H](C)O)C(N)=O)[C@@H](C)O)[C@@H](C)CC (I: Decanoyl-GLLKRIKTLLKK-NH2 / II: Decanoyl-GLLKRIKTLL / III: Decanoyl-GLLKRIKTLL; amide I:11-III:C, I:12-II:C) | 146.63
CC[C@H](C)[C@H](NC(=O)[C@H](CCCNC(=N)N)NC(=O)[C@H](CCCCN)NC(=O)[C@H](CC(C)C)NC(=O)[C@H](CC(C)C)NC(=O)CN)C(=O)N[C@@H](CCCCN)C(=O)N[C@H](C(=O)N[C@@H](CC(C)C)C(=O)N[C@@H](CC(C)C)C(=O)NCCCC[C@H](NC(=O)[C@H](CCCCNC(=O)[C@H](CC(C)C)NC(=O)[C@H](CC(C)C)NC(=O)[C@@H](NC(=O)[C@H](CCCCN)NC(=O)[C@@H](NC(=O)[C@H](CCCNC(=N)N)NC(=O)[C@H](CCCCN)NC(=O)[C@H](CC(C)C)NC(=O)[C@H](CC(C)C)NC(=O)CN)[C@@H](C)CC)[C@@H](C)O)NC(=O)[C@H](CC(C)C)NC(=O)[C@H](CC(C)C)NC(=O)[C@@H](NC(=O)[C@H](CCCCN)NC(=O)[C@@H](NC(=O)[C@H](CCCNC(=N)N)NC(=O)[C@H](CCCCN)NC(=O)[C@H](CC(C)C)NC(=O)[C@H](CC(C)C)NC(=O)CN)[C@@H](C)CC)[C@@H](C)O)C(N)=O)[C@@H](C)O (I: H-GLLKRIKTLLKK-NH2 / II: H-GLLKRIKTLL / III: H-GLLKRIKTLL; amide I:11-III:C, I:12-II:C) | 2.53
CCCCCC(=O)NCC(=O)N[C@@H](CC(C)C)C(=O)N[C@@H](CC(C)C)C(=O)N[C@@H](CCCCN)C(=O)N[C@@H](CCCNC(=N)N)C(=O)N[C@H](C(=O)N[C@@H](CCCCN)C(=O)N[C@H](C(=O)N[C@@H](CC(C)C)C(=O)N[C@@H](CC(C)C)C(=O)NCCCC[C@H](NC(=O)[C@H](CCCCNC(=O)[C@H](CC(C)C)NC(=O)[C@H](CC(C)C)NC(=O)[C@@H](NC(=O)[C@H](CCCCN)NC(=O)[C@@H](NC(=O)[C@H](CCCNC(=N)N)NC(=O)[C@H](CCCCN)NC(=O)[C@H](CC(C)C)NC(=O)[C@H](CC(C)C)NC(=O)CNC(=O)CCCCC)[C@@H](C)CC)[C@@H](C)O)NC(=O)[C@H](CC(C)C)NC(=O)[C@H](CC(C)C)NC(=O)[C@@H](NC(=O)[C@H](CCCCN)NC(=O)[C@@H](NC(=O)[C@H](CCCNC(=N)N)NC(=O)[C@H](CCCCN)NC(=O)[C@H](CC(C)C)NC(=O)[C@H](CC(C)C)NC(=O)CNC(=O)CCCCC)[C@@H](C)CC)[C@@H](C)O)C(N)=O)[C@@H](C)O)[C@@H](C)CC (I: Hexanoyl-GLLKRIKTLLKK-NH2 / II: Hexanoyl-GLLKRIKTLL / III: Hexanoyl-GLLKRIKTLL; amide I:11-III:C, I:12-II:C) | 0.71
CCCCCCCCCCCC(=O)NCC(=O)N[C@@H](CC(C)C)C(=O)N[C@@H](CC(C)C)C(=O)N[C@@H](CCCCN)C(=O)N[C@@H](CCCNC(=N)N)C(=O)N[C@H](C(=O)N[C@@H](CCCCN)C(=O)N[C@H](C(=O)N[C@@H](CC(C)C)C(=O)N[C@@H](CC(C)C)C(=O)NCCCC[C@H](NC(=O)[C@H](CCCCNC(=O)[C@H](CC(C)C)NC(=O)[C@H](CC(C)C)NC(=O)[C@@H](NC(=O)[C@H](CCCCN)NC(=O)[C@@H](NC(=O)[C@H](CCCNC(=N)N)NC(=O)[C@H](CCCCN)NC(=O)[C@H](CC(C)C)NC(=O)[C@H](CC(C)C)NC(=O)CNC(=O)CCCCCCCCCCC)[C@@H](C)CC)[C@@H](C)O)NC(=O)[C@H](CC(C)C)NC(=O)[C@H](CC(C)C)NC(=O)[C@@H](NC(=O)[C@H](CCCCN)NC(=O)[C@@H](NC(=O)[C@H](CCCNC(=N)N)NC(=O)[C@H](CCCCN)NC(=O)[C@H](CC(C)C)NC(=O)[C@H](CC(C)C)NC(=O)CNC(=O)CCCCCCCCCCC)[C@@H](C)CC)[C@@H](C)O)C(N)=O)[C@@H](C)O)[C@@H](C)CC (I: Lauroyl-GLLKRIKTLLKK-NH2 / II: Lauroyl-GLLKRIKTLL / III: Lauroyl-GLLKRIKTLL; amide I:11-III:C, I:12-II:C) | 103.52
CCCCCCCC(=O)NCC(=O)N[C@@H](CC(C)C)C(=O)N[C@@H](CC(C)C)C(=O)N[C@@H](CCCCN)C(=O)N[C@@H](CCCNC(=N)N)C(=O)N[C@H](C(=O)N[C@@H](CCCCN)C(=O)N[C@H](C(=O)N[C@@H](CC(C)C)C(=O)N[C@@H](CC(C)C)C(=O)NCCCC[C@H](NC(=O)[C@H](CCCCNC(=O)[C@H](CC(C)C)NC(=O)[C@H](CC(C)C)NC(=O)[C@@H](NC(=O)[C@H](CCCCN)NC(=O)[C@@H](NC(=O)[C@H](CCCNC(=N)N)NC(=O)[C@H](CCCCN)NC(=O)[C@H](CC(C)C)NC(=O)[C@H](CC(C)C)NC(=O)CNC(=O)CCCCCCC)[C@@H](C)CC)[C@@H](C)O)NC(=O)[C@H](CC(C)C)NC(=O)[C@H](CC(C)C)NC(=O)[C@@H](NC(=O)[C@H](CCCCN)NC(=O)[C@@H](NC(=O)[C@H](CCCNC(=N)N)NC(=O)[C@H](CCCCN)NC(=O)[C@H](CC(C)C)NC(=O)[C@H](CC(C)C)NC(=O)CNC(=O)CCCCCCC)[C@@H](C)CC)[C@@H](C)O)C(N)=O)[C@@H](C)O)[C@@H](C)CC (I: Octanoyl-GLLKRIKTLLKK-NH2 / II: Octanoyl-GLLKRIKTLL / III: Octanoyl-GLLKRIKTLL; amide I:11-III:C, I:12-II:C) | 59.73

Source: ChEMBL document CHEMBL5608163, “Structure modification of anoplin for fighting resistant bacteria” (Eur J Med Chem, 2024)
